Laboratory results taken from PubChem BioAssay (NCI).
Values joined by “and” are separate entries in the source; they are usually repeats but may differ in a detail not shown here. Equal entries are not always repeated.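 96-well plates; 48 h exposure; 5 concentrations. Endpoints by linear interpolation between flanking doses. Not reached: highest tested concentration assigned. GI50: concentration for 50% inhibition of growth. TGI: total growth inhibition.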

Assays:
Test in all cases: NCI-60 cell line screen, 48 h; in the data active = GI50 below about 0.43 µM; inactive = the rest
OVCAR-5 ovarian = system: OVCAR-5 ovarian
UACC-257 melanoma = system: UACC-257 melanoma
TK-10 renal = system: TK-10 renal
SNB-19 CNS = system: SNB-19 CNS
MDA-MB-231 breast = system: MDA-MB-231 breast
A498 renal = system: A498 renal
ACHN renal = system: ACHN renal
NCI/ADR-RES ovarian = system: NCI/ADR-RES ovarian
SK-OV-3 ovarian = system: SK-OV-3 ovarian
HOP-92 NSCLC = system: HOP-92 NSCLC
DU-145 prostate = system: DU-145 prostate
RPMI-8226 leukemia = system: RPMI-8226 leukemia
A549 NSCLC = system: A549 NSCLC
786-0 renal = system: 786-0 renal
SK-MEL-28 melanoma = system: SK-MEL-28 melanoma
UO-31 renal = system: UO-31 renal
SF-539 CNS = system: SF-539 CNS
SR leukemia = system: SR leukemia
M14 melanoma = system: M14 melanoma
HS 578T breast = system: HS 578T breast
HCT-15 colon = system: HCT-15 colon
K-562 leukemia = system: K-562 leukemia
MDA-MB-435 = system: MDA-MB-435
EKVX NSCLC = system: EKVX NSCLC
OVCAR-3 ovarian = system: OVCAR-3 ovarian
SF-268 CNS = system: SF-268 CNS
NCI-H23 lung = system: NCI-H23 lung
HT29 colon = system: HT29 colon
HOP-62 NSCLC = system: HOP-62 NSCLC
OVCAR-4 ovarian = system: OVCAR-4 ovarian
SN12C renal = system: SN12C renal
HCC-2998 colon = system: HCC-2998 colon
KM12 colon = system: KM12 colon
RXF 393 renal = system: RXF 393 renal
NCI-H460 lung = system: NCI-H460 lung
BT-549 breast = system: BT-549 breast
MALME-3M melanoma = system: MALME-3M melanoma
COLO 205 colon = system: COLO 205 colon
MOLT-4 leukemia = system: MOLT-4 leukemia
HL-60(TB) leukemia = system: HL-60(TB) leukemia
CCRF-CEM leukemia = system: CCRF-CEM leukemia
U251 CNS = system: U251 CNS
HCT-116 colon = system: HCT-116 colon
CAKI-1 renal = system: CAKI-1 renal
SK-MEL-2 melanoma = system: SK-MEL-2 melanoma
LOX IMVI melanoma = system: LOX IMVI melanoma
MCF7 breast = system: MCF7 breast
SF-295 CNS = system: SF-295 CNS
SK-MEL-5 melanoma = system: SK-MEL-5 melanoma
PC-3 prostate = system: PC-3 prostate
OVCAR-8 ovarian = system: OVCAR-8 ovarian
SNB-75 CNS = system: SNB-75 CNS
IGROV1 ovarian = system: IGROV1 ovarian
NCI-H226 lung = system: NCI-H226 lung

Cc1n(Cc2ccc3ccccc3c2)c2ccccc2[n+]1Cc1ccc2ccccc2c1
2.88 µM: TGI (A498 renal)
1.48 µM: TGI (RPMI-8226 leukemia)
3.18 µM: TGI (SK-MEL-28 melanoma)
3.32 µM: TGI (786-0 renal)
inactive: GI50 (OVCAR-5 ovarian) 1.42 µM | GI50 (UACC-257 melanoma) 1.24 µM | GI50 (TK-10 renal) 1.55 µM | GI50 (SNB-19 CNS) 1.35 µM | GI50 (MDA-MB-231 breast) 1.33 µM | GI50 (A498 renal) 1.35 µM | GI50 (ACHN renal) 2.46 µM | GI50 (NCI/ADR-RES ovarian) 19.2 µM | GI50 (SK-OV-3 ovarian) 1.65 µM | GI50 (DU-145 prostate) 1.63 µM | GI50 (A549 NSCLC) 1.76 µM | GI50 (786-0 renal) 1.75 µM | GI50 (SK-MEL-28 melanoma) 1.54 µM | GI50 (UO-31 renal) 1.5 µM | GI50 (SF-539 CNS) 1.53 µM
2.79 µM: TGI (UACC-257 melanoma)
2.71 µM: TGI (MDA-MB-231 breast)
3.03 µM: TGI (TK-10 renal)
6.49 µM: TGI (ACHN renal)
2.87 µM: TGI (UO-31 renal)
2.77 µM: TGI (SNB-19 CNS)
2.06 µM: TGI (HOP-92 NSCLC)
active: GI50 (HOP-92 NSCLC) 0.0317 µM | GI50 (RPMI-8226 leukemia) 0.0291 µM
2.91 µM: TGI (SF-539 CNS)
87.6 µM: TGI (NCI/ADR-RES ovarian)
2.82 µM: TGI (OVCAR-5 ovarian)
3.11 µM: TGI (SK-OV-3 ovarian)
3.04 µM: TGI (DU-145 prostate)
3.4 µM: TGI (A549 NSCLC)

COc1ccc2nc3cc(Cl)ccc3c(N)c2c1
3.48 µM: TGI (UACC-257 melanoma)
3.66 µM: TGI (OVCAR-5 ovarian)
3.71 µM: TGI (M14 melanoma)
0.591 µM: TGI (SR leukemia)
2.97 µM: TGI (HCT-15 colon)
inactive: GI50 (OVCAR-5 ovarian) 2.09 µM | GI50 (UACC-257 melanoma) 1.93 µM | GI50 (M14 melanoma) 1.94 µM | GI50 (HS 578T breast) 2.86 µM | GI50 (SK-MEL-28 melanoma) 2.01 µM | GI50 (HCT-15 colon) 0.713 µM
> 100 µM: TGI (HS 578T breast)
3.51 µM: TGI (SK-MEL-28 melanoma)
active: GI50 (SR leukemia) 0.236 µM

O=c1[nH]nc(NCCc2ccccc2)c2nnn(Cc3ccccc3)c12
> 100 µM: TGI (K-562 leukemia) | TGI (MDA-MB-435) | TGI (OVCAR-5 ovarian) | TGI (EKVX NSCLC) | TGI (OVCAR-3 ovarian) | TGI (SF-268 CNS) | TGI (UACC-257 melanoma) | TGI (NCI-H23 lung) | TGI (TK-10 renal) | TGI (HT29 colon) | TGI (HOP-62 NSCLC) | TGI (SNB-19 CNS) | TGI (MDA-MB-231 breast) | TGI (OVCAR-4 ovarian) | TGI (SN12C renal) | TGI (HCC-2998 colon) | TGI (ACHN renal) | TGI (NCI/ADR-RES ovarian) | TGI (KM12 colon) | TGI (RXF 393 renal) | TGI (NCI-H460 lung) | TGI (BT-549 breast) | TGI (SR leukemia) | TGI (MALME-3M melanoma) | TGI (COLO 205 colon) | TGI (MOLT-4 leukemia) | TGI (DU-145 prostate) | TGI (HL-60(TB) leukemia) | TGI (CCRF-CEM leukemia) | TGI (U251 CNS) | TGI (RPMI-8226 leukemia) | TGI (M14 melanoma) | TGI (A549 NSCLC) | TGI (HCT-116 colon) | TGI (CAKI-1 renal) | TGI (SK-MEL-2 melanoma) | TGI (786-0 renal) | TGI (SK-MEL-28 melanoma) | TGI (LOX IMVI melanoma) | TGI (MCF7 breast) | TGI (UO-31 renal) | TGI (SF-295 CNS) | TGI (SK-MEL-5 melanoma) | TGI (PC-3 prostate) | TGI (HCT-15 colon) | TGI (OVCAR-8 ovarian) | TGI (SNB-75 CNS)

C/C=C/C[C@@H](C)C(=O)C1C(=O)N[C@@H](C(C)C)C(=O)N(C)CC(=O)N(C)[C@@H](CC(C)C)C(=O)N[C@@H](C(C)C)C(=O)N(C)[C@@H](CC(C)C)C(=O)N[C@@H](C)C(=O)N[C@@H](C)C(=O)N(C)[C@@H](CC(C)C)C(=O)N(C)[C@@H](CC(C)C)C(=O)N(C)[C@@H](C(C)C)C(=O)N1C (some centres undefined)
71.5 µM: TGI (A498 renal)
> 20.5 µM and 67 µM: TGI (UACC-257 melanoma)
> 20.5 µM: TGI (NCI-H23 lung) | TGI (HOP-92 NSCLC)
65.6 µM: TGI (IGROV1 ovarian)
76.3 µM: TGI (SK-MEL-2 melanoma)
inactive: GI50 (UACC-257 melanoma) 45.5 µM | GI50 (NCI-H23 lung) 47 µM | GI50 (A498 renal) 50.4 µM | GI50 (IGROV1 ovarian) 20.8 µM | GI50 (MALME-3M melanoma) 75.8 µM | GI50 (SK-MEL-2 melanoma) 40.8 µM | GI50 (NCI-H226 lung) 45.3 µM
18.4 µM and 83.2 µM: TGI (NCI-H226 lung)
